In PMC12300041, “Tricyclic Isatin Derivatives as Anti-Inflammatory Compounds with High Kinase Binding Affinity” (Molecules, 2025):

Experiments:
Experiment in all cases: KINOMEscan
Format in all cases: binding
INSR = target: T1, INSR (Homo sapiens, UniProt P06213)
T1 construct: purchased Eurofins DiscoverX KINOMEscan
Procedure, shortened: (§1)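 Competition binding run for 1 h at room temperature; kinase left unbound by compound was captured on an immobilized affinity ligand and quantified by qPCR. Kd was taken from a 12-point half-log dilution series with a 33 μM top concentration.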

EPHB4 = target: T2, EPHB4 (Homo sapiens, UniProt P54760)
T2 construct: purchased Eurofins DiscoverX KINOMEscan
Procedure, shortened: as §1

ACVR2B = target: T3, ACVR2B (Homo sapiens, UniProt Q13705)
T3 construct: purchased Eurofins DiscoverX KINOMEscan
Procedure, shortened: as §1

CDK11 = target: T4, CDK11 (Homo sapiens, UniProt Q9BWU1)
T4 construct: purchased Eurofins DiscoverX KINOMEscan
Procedure, shortened: as §1

STK33 = target: T5, STK33 (Homo sapiens, UniProt Q9BYT3)
T5 construct: purchased Eurofins DiscoverX KINOMEscan
Procedure, shortened: as §1

BLK = target: T6, BLK (Homo sapiens, UniProt P51451)
T6 construct: purchased Eurofins DiscoverX KINOMEscan
Procedure, shortened: as §1

RIOK2 = target: T7, RIOK2 (Homo sapiens, UniProt Q9BVS4)
T7 construct: purchased Eurofins DiscoverX KINOMEscan
Procedure, shortened: as §1

SNRK = target: T8, SNRK (Homo sapiens, UniProt Q9NRH2)
T8 construct: purchased Eurofins DiscoverX KINOMEscan
Procedure, shortened: as §1

PKAC-β = target: T9, PKAC-β (Homo sapiens, UniProt P22694)
T9 construct: purchased Eurofins DiscoverX KINOMEscan
Procedure, shortened: as §1

ADCK4 = target: T10, ADCK4 (Homo sapiens, UniProt Q96D53)
T10 construct: purchased Eurofins DiscoverX KINOMEscan
Procedure, shortened: as §1

ULK2 = target: T11, ULK2 (Homo sapiens, UniProt Q8IYT8)
T11 construct: purchased Eurofins DiscoverX KINOMEscan
Procedure, shortened: as §1

MST1R = target: T12, MST1R (Homo sapiens, UniProt Q04912)
T12 construct: purchased Eurofins DiscoverX KINOMEscan
Procedure, shortened: as §1

WEE2 = target: T13, WEE2 (Homo sapiens, UniProt P0C1S8)
T13 construct: purchased Eurofins DiscoverX KINOMEscan
Procedure, shortened: as §1

CDK7 = target: T14, CDK7 (Homo sapiens, UniProt P50613)
T14 construct: purchased Eurofins DiscoverX KINOMEscan
Procedure, shortened: as §1

MYO3A = target: T15, MYO3A (Homo sapiens, UniProt Q8NEV4)
T15 construct: purchased Eurofins DiscoverX KINOMEscan
Procedure, shortened: as §1

FLT3 (K663Q) = target: T16, FLT3 (K663Q) (Homo sapiens, UniProt P36888, K663Q)
T16 construct: purchased Eurofins DiscoverX KINOMEscan
Procedure, shortened: as §1

CAMK2D = target: T17, CAMK2D (Homo sapiens, UniProt Q13557)
T17 construct: purchased Eurofins DiscoverX KINOMEscan
Procedure, shortened: as §1

CSNK1E = target: T18, CSNK1E (Homo sapiens, UniProt P49674)
T18 construct: purchased Eurofins DiscoverX KINOMEscan
Procedure, shortened: as §1

PRKCD = target: T19, PRKCD (Homo sapiens, UniProt Q05655)
T19 construct: purchased Eurofins DiscoverX KINOMEscan
Procedure, shortened: as §1

FRK = target: T20, FRK (Homo sapiens, UniProt P42685)
T20 construct: purchased Eurofins DiscoverX KINOMEscan
Procedure, shortened: as §1

MAP3K2 = target: T21, MAP3K2 (Homo sapiens, UniProt Q9Y2U5)
T21 construct: purchased Eurofins DiscoverX KINOMEscan
Procedure, shortened: as §1

MAPKAPK5 = target: T22, MAPKAPK5 (Homo sapiens, UniProt Q8IW41)
T22 construct: purchased Eurofins DiscoverX KINOMEscan
Procedure, shortened: as §1

PIK3CA (I800L) = target: T23, PIK3CA (I800L) (Homo sapiens, UniProt P42336, I800L)
T23 construct: purchased Eurofins DiscoverX KINOMEscan
Procedure, shortened: as §1

GRK7 = target: T24, GRK7 (Homo sapiens, UniProt Q8WTQ7)
T24 construct: purchased Eurofins DiscoverX KINOMEscan
Procedure, shortened: as §1

ABL1 (Y253F)-P = target: T25, ABL1 (Y253F)-P (Homo sapiens, UniProt P00519, Y253F)
T25 construct: purchased Eurofins DiscoverX KINOMEscan
Procedure, shortened: as §1

WEE1 = target: T26, WEE1 (Homo sapiens, UniProt P30291)
T26 construct: purchased Eurofins DiscoverX KINOMEscan
Procedure, shortened: as §1

CAMK2B = target: T27, CAMK2B (Homo sapiens, UniProt Q13554)
T27 construct: purchased Eurofins DiscoverX KINOMEscan
Procedure, shortened: as §1

LKB1 = target: T28, LKB1 (Homo sapiens, UniProt Q15831)
T28 construct: purchased Eurofins DiscoverX KINOMEscan
Procedure, shortened: as §1

NDR1 = target: T29, NDR1 (Homo sapiens, UniProt Q15208)
T29 construct: purchased Eurofins DiscoverX KINOMEscan
Procedure, shortened: as §1

HUNK = target: T30, HUNK (Homo sapiens, UniProt P57058)
T30 construct: purchased Eurofins DiscoverX KINOMEscan
Procedure, shortened: as §1

BRK = target: T31, BRK (Homo sapiens, UniProt Q13882)
T31 construct: purchased Eurofins DiscoverX KINOMEscan
Procedure, shortened: as §1

ROCK2 = target: T32, ROCK2 (Homo sapiens, UniProt O75116)
T32 construct: purchased Eurofins DiscoverX KINOMEscan
Procedure, shortened: as §1

FLT3 = target: T33, FLT3 (Homo sapiens, UniProt P36888)
T33 construct: purchased Eurofins DiscoverX KINOMEscan
Procedure, shortened: as §1

PIK3C2G = target: T34, PIK3C2G (Homo sapiens, UniProt O75747)
T34 construct: purchased Eurofins DiscoverX KINOMEscan
Procedure, shortened: as §1

PLK1 = target: T35, PLK1 (Homo sapiens, UniProt P53350)
T35 construct: purchased Eurofins DiscoverX KINOMEscan
Procedure, shortened: as §1

CAMK1G = target: T36, CAMK1G (Homo sapiens, UniProt Q96NX5)
T36 construct: purchased Eurofins DiscoverX KINOMEscan
Procedure, shortened: as §1

VEGFR2 = target: T37, VEGFR2 (Homo sapiens, UniProt P35968)
T37 construct: purchased Eurofins DiscoverX KINOMEscan
Procedure, shortened: as §1

CSF1R = target: T38, CSF1R (Homo sapiens, UniProt P07333)
T38 construct: purchased Eurofins DiscoverX KINOMEscan
Procedure, shortened: as §1

CDKL5 = target: T39, CDKL5 (Homo sapiens, UniProt O76039)
T39 construct: purchased Eurofins DiscoverX KINOMEscan
Procedure, shortened: as §1

[1] = target: T40, TYK2 (JH2 domain-pseudokinase) (Homo sapiens, UniProt P29597)
T40 construct: TYK2 (JH2 domain-pseudokinase); purchased Eurofins DiscoverX KINOMEscan
Procedure, shortened: as §1

T23 sequence (P42336 whole entry I800L): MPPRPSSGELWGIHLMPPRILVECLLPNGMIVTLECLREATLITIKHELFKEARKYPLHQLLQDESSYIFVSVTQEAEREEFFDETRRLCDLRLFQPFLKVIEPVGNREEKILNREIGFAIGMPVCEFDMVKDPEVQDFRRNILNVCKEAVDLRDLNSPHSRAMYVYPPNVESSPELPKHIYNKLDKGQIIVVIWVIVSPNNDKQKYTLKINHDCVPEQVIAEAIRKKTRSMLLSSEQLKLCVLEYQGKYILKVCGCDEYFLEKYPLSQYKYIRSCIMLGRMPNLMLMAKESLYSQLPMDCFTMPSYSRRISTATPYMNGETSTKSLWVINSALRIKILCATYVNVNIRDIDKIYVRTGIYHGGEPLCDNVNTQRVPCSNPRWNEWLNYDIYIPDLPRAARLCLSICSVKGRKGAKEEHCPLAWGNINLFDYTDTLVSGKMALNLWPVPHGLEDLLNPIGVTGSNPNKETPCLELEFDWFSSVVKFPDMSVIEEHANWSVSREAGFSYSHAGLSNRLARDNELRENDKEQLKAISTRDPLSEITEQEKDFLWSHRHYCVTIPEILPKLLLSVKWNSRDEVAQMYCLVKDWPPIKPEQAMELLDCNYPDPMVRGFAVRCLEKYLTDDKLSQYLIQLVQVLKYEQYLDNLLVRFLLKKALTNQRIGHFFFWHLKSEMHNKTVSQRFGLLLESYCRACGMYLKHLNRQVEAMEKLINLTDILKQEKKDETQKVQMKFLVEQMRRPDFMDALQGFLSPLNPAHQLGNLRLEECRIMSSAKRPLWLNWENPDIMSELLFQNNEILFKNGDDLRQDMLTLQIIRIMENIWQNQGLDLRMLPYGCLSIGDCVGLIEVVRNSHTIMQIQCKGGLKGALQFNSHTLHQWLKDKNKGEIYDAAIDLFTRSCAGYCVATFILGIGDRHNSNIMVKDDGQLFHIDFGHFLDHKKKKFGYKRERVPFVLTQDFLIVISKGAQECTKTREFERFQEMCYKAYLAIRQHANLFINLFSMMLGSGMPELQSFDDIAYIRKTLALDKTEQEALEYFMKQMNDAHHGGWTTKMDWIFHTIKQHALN
T26 sequence (P30291 whole entry): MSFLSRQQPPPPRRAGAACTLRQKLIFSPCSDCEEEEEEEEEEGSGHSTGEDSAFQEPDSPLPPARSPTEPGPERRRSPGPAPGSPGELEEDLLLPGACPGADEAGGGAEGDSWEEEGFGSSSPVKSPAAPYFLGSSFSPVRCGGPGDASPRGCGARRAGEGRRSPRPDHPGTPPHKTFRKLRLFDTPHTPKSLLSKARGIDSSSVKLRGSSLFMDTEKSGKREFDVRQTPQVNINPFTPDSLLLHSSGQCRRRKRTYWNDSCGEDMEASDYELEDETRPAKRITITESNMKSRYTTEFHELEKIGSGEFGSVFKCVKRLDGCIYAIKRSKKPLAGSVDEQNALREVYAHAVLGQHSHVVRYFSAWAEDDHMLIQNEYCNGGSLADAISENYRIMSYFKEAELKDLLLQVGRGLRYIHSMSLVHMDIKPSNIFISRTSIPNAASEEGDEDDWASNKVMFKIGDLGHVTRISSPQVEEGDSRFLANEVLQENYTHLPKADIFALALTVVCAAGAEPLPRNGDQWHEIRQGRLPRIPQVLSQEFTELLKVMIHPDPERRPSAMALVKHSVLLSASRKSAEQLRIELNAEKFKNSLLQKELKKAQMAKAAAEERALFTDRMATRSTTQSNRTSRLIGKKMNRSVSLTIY
T2 sequence (P54760 16-987): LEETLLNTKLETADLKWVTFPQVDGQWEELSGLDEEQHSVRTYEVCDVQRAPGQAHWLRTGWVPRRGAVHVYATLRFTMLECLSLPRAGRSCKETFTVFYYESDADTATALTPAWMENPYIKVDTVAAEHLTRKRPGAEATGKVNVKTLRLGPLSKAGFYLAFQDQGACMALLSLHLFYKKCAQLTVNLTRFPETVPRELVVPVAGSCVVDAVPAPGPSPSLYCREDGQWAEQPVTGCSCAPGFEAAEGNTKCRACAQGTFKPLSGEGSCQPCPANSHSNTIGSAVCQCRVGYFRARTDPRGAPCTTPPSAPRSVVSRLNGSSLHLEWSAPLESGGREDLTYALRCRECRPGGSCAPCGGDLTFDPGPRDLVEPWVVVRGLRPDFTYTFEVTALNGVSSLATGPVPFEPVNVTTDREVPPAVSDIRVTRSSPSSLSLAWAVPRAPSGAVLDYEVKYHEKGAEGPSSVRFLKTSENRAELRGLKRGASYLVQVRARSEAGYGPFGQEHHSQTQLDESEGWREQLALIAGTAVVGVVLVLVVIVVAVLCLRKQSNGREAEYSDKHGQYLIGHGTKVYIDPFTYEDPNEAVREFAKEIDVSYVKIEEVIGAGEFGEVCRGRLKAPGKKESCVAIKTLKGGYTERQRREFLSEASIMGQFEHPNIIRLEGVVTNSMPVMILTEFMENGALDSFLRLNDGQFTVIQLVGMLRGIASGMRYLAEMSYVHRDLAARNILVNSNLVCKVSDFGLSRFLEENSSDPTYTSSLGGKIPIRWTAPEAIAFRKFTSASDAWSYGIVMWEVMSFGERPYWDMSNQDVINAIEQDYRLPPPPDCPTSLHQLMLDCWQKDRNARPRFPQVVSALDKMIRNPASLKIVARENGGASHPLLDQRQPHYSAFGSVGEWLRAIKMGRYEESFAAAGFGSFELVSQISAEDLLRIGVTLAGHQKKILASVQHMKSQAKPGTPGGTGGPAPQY
T3 sequence (Q13705 19-512): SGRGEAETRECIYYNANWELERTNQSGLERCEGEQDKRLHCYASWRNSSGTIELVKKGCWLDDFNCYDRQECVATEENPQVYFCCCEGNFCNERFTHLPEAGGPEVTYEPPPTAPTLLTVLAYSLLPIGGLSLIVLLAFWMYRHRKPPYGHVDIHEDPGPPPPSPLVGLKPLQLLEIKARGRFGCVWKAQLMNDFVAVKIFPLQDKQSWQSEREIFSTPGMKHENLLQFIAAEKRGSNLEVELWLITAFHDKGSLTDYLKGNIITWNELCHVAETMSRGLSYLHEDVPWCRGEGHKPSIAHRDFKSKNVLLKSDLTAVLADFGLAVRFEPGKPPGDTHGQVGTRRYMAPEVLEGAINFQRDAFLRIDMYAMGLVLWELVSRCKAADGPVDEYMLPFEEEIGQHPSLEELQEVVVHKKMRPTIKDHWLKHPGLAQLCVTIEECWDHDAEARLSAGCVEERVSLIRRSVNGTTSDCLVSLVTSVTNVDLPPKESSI
T34 sequence (O75747 whole entry): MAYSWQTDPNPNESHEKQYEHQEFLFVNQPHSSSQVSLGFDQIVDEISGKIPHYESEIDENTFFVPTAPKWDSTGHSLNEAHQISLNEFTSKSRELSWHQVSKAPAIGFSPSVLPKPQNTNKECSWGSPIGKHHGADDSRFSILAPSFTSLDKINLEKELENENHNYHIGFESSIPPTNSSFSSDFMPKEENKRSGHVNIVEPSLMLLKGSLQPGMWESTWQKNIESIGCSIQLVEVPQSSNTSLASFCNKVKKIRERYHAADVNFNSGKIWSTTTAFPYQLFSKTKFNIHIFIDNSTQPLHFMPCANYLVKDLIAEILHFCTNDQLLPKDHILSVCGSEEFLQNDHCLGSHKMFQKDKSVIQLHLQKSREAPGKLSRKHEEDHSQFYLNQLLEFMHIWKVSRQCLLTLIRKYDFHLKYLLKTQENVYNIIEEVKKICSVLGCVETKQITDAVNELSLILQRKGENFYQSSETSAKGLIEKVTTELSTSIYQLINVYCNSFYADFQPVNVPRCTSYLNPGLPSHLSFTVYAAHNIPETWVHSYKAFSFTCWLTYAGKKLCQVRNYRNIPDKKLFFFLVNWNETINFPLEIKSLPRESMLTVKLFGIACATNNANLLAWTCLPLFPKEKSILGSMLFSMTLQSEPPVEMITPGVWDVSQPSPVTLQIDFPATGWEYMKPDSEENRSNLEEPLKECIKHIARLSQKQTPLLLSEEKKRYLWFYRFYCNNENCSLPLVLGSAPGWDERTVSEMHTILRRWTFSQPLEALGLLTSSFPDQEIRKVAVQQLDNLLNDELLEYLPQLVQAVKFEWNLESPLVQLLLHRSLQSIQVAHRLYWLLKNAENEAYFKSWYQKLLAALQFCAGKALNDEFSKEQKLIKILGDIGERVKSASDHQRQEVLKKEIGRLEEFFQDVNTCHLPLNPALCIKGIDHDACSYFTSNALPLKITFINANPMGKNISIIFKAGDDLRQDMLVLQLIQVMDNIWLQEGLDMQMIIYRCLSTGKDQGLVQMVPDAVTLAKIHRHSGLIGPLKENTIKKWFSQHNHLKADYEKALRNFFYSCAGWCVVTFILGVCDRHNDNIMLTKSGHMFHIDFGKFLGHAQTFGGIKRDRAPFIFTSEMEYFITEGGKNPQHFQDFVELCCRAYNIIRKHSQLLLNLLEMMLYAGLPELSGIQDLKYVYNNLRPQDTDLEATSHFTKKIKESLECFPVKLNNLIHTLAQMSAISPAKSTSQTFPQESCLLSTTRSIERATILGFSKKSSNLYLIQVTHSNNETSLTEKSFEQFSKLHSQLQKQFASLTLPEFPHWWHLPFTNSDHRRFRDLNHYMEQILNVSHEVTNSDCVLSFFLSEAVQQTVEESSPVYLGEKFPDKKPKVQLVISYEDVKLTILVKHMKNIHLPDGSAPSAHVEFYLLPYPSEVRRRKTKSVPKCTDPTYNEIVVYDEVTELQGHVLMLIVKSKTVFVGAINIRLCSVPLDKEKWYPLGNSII
T18 sequence (P49674 whole entry): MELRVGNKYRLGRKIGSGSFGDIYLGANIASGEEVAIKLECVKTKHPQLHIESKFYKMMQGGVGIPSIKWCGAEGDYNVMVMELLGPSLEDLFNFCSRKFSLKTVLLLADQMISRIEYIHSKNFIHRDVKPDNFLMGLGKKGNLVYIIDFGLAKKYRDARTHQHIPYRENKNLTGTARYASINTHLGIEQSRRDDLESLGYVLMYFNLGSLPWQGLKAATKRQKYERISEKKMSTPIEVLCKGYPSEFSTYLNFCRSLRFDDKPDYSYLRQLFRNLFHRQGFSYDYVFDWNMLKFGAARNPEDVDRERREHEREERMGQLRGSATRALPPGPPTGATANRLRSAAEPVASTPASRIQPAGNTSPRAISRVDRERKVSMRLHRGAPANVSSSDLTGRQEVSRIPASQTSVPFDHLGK

O=C1Nc2c(cc([N+](=O)[O-])c3c2CCCC3)C1=NO [Compound 5d, 3-(Hydroxyimino)-5-nitro-1,3,6,7,8,9-hexahydro-2H-benzo[g]indol-2-one]
inhibition at 10 µM (INSR): 1% | inhibition at 10 µM (EPHB4): 0% | inhibition at 10 µM (ACVR2B): 25% | inhibition at 10 µM (CDK11): 1% | inhibition at 10 µM (STK33): 62% | inhibition at 10 µM (BLK): 23% | inhibition at 10 µM (RIOK2): 80% | inhibition at 10 µM (SNRK): 22% | inhibition at 10 µM (PKAC-β): 2% | inhibition at 10 µM (ADCK4): 12% | inhibition at 10 µM (ULK2): 52% | inhibition at 10 µM (MST1R): 0% | inhibition at 10 µM (WEE2): 0% | inhibition at 10 µM (CDK7): 95.8% | inhibition at 10 µM (MYO3A): 51% | inhibition at 10 µM (FLT3 (K663Q)): 5% | inhibition at 10 µM (CAMK2D): 51% | inhibition at 10 µM (CSNK1E): 80% | inhibition at 10 µM (PRKCD): 10% | inhibition at 10 µM (FRK): 0% | inhibition at 10 µM (MAP3K2): 79% | inhibition at 10 µM (MAPKAPK5): 2% | inhibition at 10 µM (PIK3CA (I800L)): 5% | inhibition at 10 µM (GRK7): 43% | inhibition at 10 µM (ABL1 (Y253F)-P): 41% | inhibition at 10 µM (WEE1): 16% | inhibition at 10 µM (CAMK2B): 70% | inhibition at 10 µM (LKB1): 0% | inhibition at 10 µM (NDR1): 34% | inhibition at 10 µM (HUNK): 0% | inhibition at 10 µM (BRK): 0% | inhibition at 10 µM (ROCK2): 54% | inhibition at 10 µM (FLT3): 12% | inhibition at 10 µM (PIK3C2G): 43% | inhibition at 10 µM (PLK1): 71% | inhibition at 10 µM (CAMK1G): 29% | inhibition at 10 µM (VEGFR2): 39% | inhibition at 10 µM (CSF1R): 0% | inhibition at 10 µM (CDKL5): 0% | inhibition at 10 µM [1]: 89.8%
